Legend:
RA patients = conditions: 25 studies, 3907 RA patients; cited from earlier work
patients with active RA = assay: ASPIRE trial: joint damage progression (modified Sharp/van der Heijde score) baseline to week 54; type: in vivo, human
Protocol: Details on the patient population and study protocol on which we have tested our model have been presented previously (StClair et al. Arthritis Rheum 2004; 50:3432-3443). […] In addition, patients had >=10 swollen joints (66 joint count), >=12 tender joints (68 joint count), and >=1 of the following: rheumatoid factor (RF) positivity, radiographic erosions of the hands or feet, or serum C-reactive protein (CRP) level >=2.0 mg/dl.
The institutional review boards at participating sites approved the study protocol. All patients provided written informed consent. Patients were randomized in a 4:5:5 ratio to receive placebo, infliximab 3 mg/kg, or infliximab 6 mg/kg at weeks 0, 2, and 6, and then every 8 weeks through week 46. All patients were treated with oral MTX starting at 7.5 mg/week at week 0; MTX doses were increased by 2.5 mg every 1-2 weeks to reach 15 mg/week by week 4 and 20 mg/week by week 8. MTX was administered to all patients through week 54. Patients also received folic acid >=5 mg/week.
The American College of Rheumatology core set variables (Felson A&R 1993), including numbers of tender and swollen joints, were documented at each visit. The 28 joint count (Prevoo A&R 1995) was used in the creation of our model as it is more appropriate and more frequently used in daily clinical practice as compared to the 66/68 count. The Westergren method (Koepke 1988) was used to determine erythrocyte sedimentation rate (ESR) at weeks 0, 6, 30, and 54; normal ESR levels were <=20 mm/hour for women and <=15 mm/hour for men. CRP levels (normal <0.8 mg/dl) were measured by nephelometry (Stites 1997) at screening and each visit thereafter. (If possible RF testing should be specified as different IG's tested for have different correlation with radiological progression. Radiographs of the hands and feet were obtained within 4 weeks of receiving the first dose of the study drug, at weeks 30 and 54, and upon use of a protocol-prohibited medication or study termination, as applicable. Joint damage was assessed by change in the modified Sharp/van der Heijde score (SHS) (vander Heijde Lancet 1989) from baseline to week 54.
Of the 1,049 patients enrolled in the ASPIRE trial, 1,004 were prospectively identified as eligible for inclusion in the efficacy analyses prior to unblinding (StClair A&R 2004). […] Summary statistics of median, mean, and interquartile ranges are presented for continuous variables. Spearman correlation analyses were performed to evaluate the association between baseline covariates and changes in radiographic scores. Tests for statistical significance were performed using analysis of variance on van der Waerden normal scores. For categorical response parameters, treatment group comparisons were made using the chi-square test. […]

Row | Molecule | change in erosion scores versus placebo (RA patients) | other results
1 | CC(=O)OC[C@H]1O[C@@H]([S-])[C@H](OC(C)=O)[C@@H](OC(C)=O)[C@@H]1OC(C)=O.CCP(CC)CC.[Au+] [auranofin] | statistically better than placebo | 
2 | CN(Cc1cnc2nc(N)nc(N)c2n1)c1ccc(C(=O)N[C@@H](CCC(=O)O)C(=O)O)cc1 [MTX, methotrexate] | statistically better than placebo | change in the SHS from baseline to week 54 (mean+/−SD) (patients with active RA; MTX alone): 3.7+/−9.6; patients showing an increase in radiographic score (patients with active RA; baseline to week 54): 61%; patients showing an increase of radiographic score of at least 5 SHS units (patients with active RA; baseline to week 54): 23%; patients with SHS of 0 at baseline who did not progress (patients with active RA; baseline to week 54): 63%
3 | Cc1oncc1C(=O)Nc1ccc(C(F)(F)F)cc1 [leflunomide] | statistically better than placebo | 
4 | infliximab | statistically better than placebo | rank versus other agents in preventing radiological progression (RA patients): superior to the last five agents
5 | O=C(O)c1cc(/N=N/c2ccc(S(=O)(=O)Nc3ccccn3)cc2)ccc1O [SSZ, sulphasalazine] | statistically better than placebo | 
6 | interleukin 1 receptor antagonist: interleukin 1 receptor antagonist | statistically better than placebo | 
